Results published in patent publication US20260209249A1, “NOVEL TRICYCLIC COMPOUND AS KRAS G12D INHIBITOR, AND USE THEREOF” (SK Biopharmaceuticals Co., priority 2022, published 2026).

Experiments:
[1] = molecular target: T1, GDP-KRAS G12D mutant protein (Homo sapiens, UniProt P01116, G12D); test: Differential scanning fluorimetry (DSF) binding affinity to GDP-KRAS G12D mutant protein; details: DSF thermal shift, 10 μM compound, 4 μg KRAS protein
T1 construct: purchased Daegu Gyeongbuk Medical Innovation Foundation (DGMIF), made to order
Method: (§1) Test Example 1: Measurement of Binding Affinity to KRAS G12D Mutant Protein The binding affinities of the compounds according to one embodiment of the present application to the KRAS G12D mutant protein were evaluated using differential scanning fluorimetry (DSF). Differential scanning fluorimetry (DSF) is a method used to study the stability of a protein upon binding to a compound. The experiment can be performed using a real-time PCR (RT-PCR) instrument, and is commonly employed as a screening technique for small-molecule compounds targeting specific proteins. As the temperature increases, folded proteins begin to unfold, during which a hydrophobic dye such as SYPRO Orange binds to the exposed hydrophobic regions of the protein, resulting in a measurable increase in fluorescence intensity (maximum absorption at 470 nm and maximum emission at 570 nm). Protein-compound binding is determined by the difference in the melting temperature (Tm) of the protein in the presence of the compound compared to the Tm in the absence of the compound, expressed as ΔTm. The binding affinity to the KRAS G12D mutant protein was measured using the Protein Thermal Shift Dye kit (#4461146, Applied Biosystems). The GDP-KRAS G12D mutant protein and GppNHp-KRAS G12D mutant protein used in the experiment were recombinant proteins synthesized by the Daegu Gyeongbuk Medical Innovation Foundation (DGMIF) upon request. The analysis of binding between the compound and the KRAS G12D mutant protein was performed according to the following reaction recipe: each test sample contained 4 μg of KRAS protein, 10 μM of the compound, and 2×SYPRO Orange dye. For the GDP-KRAS G12D protein samples, the buffer provided with the Protein Thermal Shift Dye kit was used, while for the GppNHp-KRAS G12D protein samples, 50 mM HEPES (pH 7.5) buffer was used. For the protein-compound binding reaction, the compound was added to the KRAS G12D mutant protein and reacted at room temperature for 30 minutes, followed by the addition of 2×SYPRO Orange dye. The temperature was increased to 25° C.-99° C. (0.05° C./s) using QuantStudiol RT-PCR instrument (Applied Biosystems), and fluorescence was measured using a ROX reporter with filters of 580±10 nm (excitation)/623±14 nm (emission). The measurements obtained at a compound concentration of 10 μM were analyzed using the Protein Thermal Shift Software program (version v1.4, Thermo Fisher Scientific), and the ΔTm (° C.) values, which indicate the binding affinity of the compound to the KRAS G12D mutant protein, were calculated. The DSF measurement results for the compounds according to one embodiment of the present application with respect to the KRAS G12D mutant protein are shown in Table 2.

[2] = molecular target: T2, GppNHp-KRAS G12D mutant protein (Homo sapiens, UniProt P01116, G12D); test: Differential scanning fluorimetry (DSF) binding affinity to GppNHp-KRAS G12D mutant protein; details: DSF thermal shift, 10 μM compound, 4 μg KRAS protein, 50 mM HEPES (pH 7.5)
T2 construct: purchased Daegu Gyeongbuk Medical Innovation Foundation (DGMIF), made to order
Method: as §1

| SMILES | GDP-KRAS G12D (ΔTmD, ° C.) [1] [°C] | GppNHp-KRAS G12D (ΔTmD, ° C.) [2] [°C] |
| --- | --- | --- |
| C#Cc1c(F)ccc2cc(O)cc(-c3cc4nc(OC[C@]56CCCN5CC(=C)C6)nc(N5C[C@H]6CC[C@@H](C5)N6)c4n4ccnc34)c12 [Example 33, 4-(1-((1R,5S)-3,8-diazabicyclo[3.2.1]octan-3-yl)-3-(((R)-2-methylenetetrahydro-1H-pyrrolizin-7a(5H)-yl)methoxy)imidazo[1′,2′:1,6]pyrido[3,2-d]pyrimidin-6-yl)-5-ethynyl-6-fluoronaphthalen-2-ol] | 7.42 | 3.59 |
| C#Cc1c(F)ccc2cc(O)cc(-c3cc4nc(OCC5(CN6CCCC6)CC5)nc(N5C[C@H]6CC[C@@H](C5)N6)c4n4ccnc34)c12 [Example 35, 4-(1-((1R,5S)-3,8-diazabicyclo[3.2.1]octan-3-yl)-3-((1-(pyrrolidin-1-ylmethyl)cyclopropyl)methoxy)imidazo[1′,2′:1,6]pyrido[3,2-d]pyrimidin-6-yl)-5-ethynyl-6-fluoronaphthalen-2-ol] | 8.91 | 2.68 |
| C#Cc1c(F)ccc2cc(N)cc(-c3cc4nc(OC[C@@]56CCCN5C/C(=C\F)C6)nc(N5C[C@H]6CC[C@@H](C5)N6)c4n4ccnc34)c12 [Example 36, 4-(1-((1R,5S)-3,8-diazabicyclo[3.2.1]octan-3-yl)-3-(((S,Z)-2-(fluoromethylene)tetrahydro-1H-pyrrolizin-7a(5H)-yl)methoxy)imidazo[1′,2′:1,6]pyrido[3,2-d]pyrimidin-6-yl)-5-ethynyl-6-fluoronaphthalen-2-amine] | 7.57 | 3.42 |
| C#Cc1c(F)ccc2cc(O)cc(-c3cc4nc(OCC5(CN6CC[C@@H](F)C6)CCC5)nc(N5C[C@H]6CC[C@@H](C5)N6)c4n4ccnc34)c12 [Example 40, 4-(1-((1R,5S)-3,8-diazabicyclo[3.2.1]octan-3-yl)-3-((1-(((R)-3-fluoropyrrolidin-1-yl)methyl)cyclobutyl)methoxy)imidazo[1′,2′:1,6]pyrido[3,2-d]pyrimidin-6-yl)-5-ethynyl-6-fluoronaphthalen-2-ol] | 5.95 | 0.61 |
| Cc1cc2c(o1)c(-c1cc(N)ccc1C(F)(F)F)c(F)c1nc(OC[C@@]34CCCN3C[C@H](F)C4)nc(N3CC4CCC(C3)N4)c12 [Example 49, 3-(1-((1R,5S)-3,8-diazabicyclo[3.2.1]octan-3-yl)-5-fluoro-3-(((2R,7aS)-2-fluorotetrahydro-1H-pyrrolizin-7a(5H)-yl)methoxy)-8-methylfuro[3,2-n]quinazolin-6-yl)-4-(trifluoromethyl)aniline] | 1.92 | 0.73 |
| Cc1cc2c(o1)c(-c1nc(N)ccc1C(F)(F)F)c(F)c1nc(OC[C@@]34CCCN3C[C@H](F)C4)nc(N3C[C@H]4CC[C@@H](C3)N4)c12 [Example 50, 6-(1-((1R,5S)-3,8-diazabicyclo[3.2.1]octan-3-yl)-5-fluoro-3-(((2R,7aS)-2-fluorotetrahydro-1H-pyrrolizin-7a(5H)-yl)methoxy)-8-methylfuro[3,2-f]quinazolin-6-yl)-5-(trifluoromethyl)pyridin-2-amine] | 0.58 | −0.31 |
| Cc1cc2c(o1)c(-c1c(Cl)c(C)cc3[nH]ncc13)c(F)c1nc(OC[C@@]34CCCN3C[C@H](F)C4)nc(N3C[C@H]4CC[C@@H](C3)N4)c12 [Example 51, 1-((1 R,5S)-3,8-diazabicyclo[3.2.1]octan-3-yl)-6-(5-chloro-6-methyl-1H-indazol-4-yl)-5-fluoro-3-(((2R,7aS)-2-fluorotetrahydro-1H-pyrrolizin-7a(5H)-yl)methoxy)-8-methylfuro[3,2-f]quinazoline] | 4.73 | 1.32 |
| Cc1cc2c(o1)c(-c1cccc3sc(N)nc13)c(F)c1nc(OC[C@@]34CCCN3C[C@H](F)C4)nc(N3CC4CCC(C3)N4)c12 [Example 54, 4-(1-((1R,5S)-3,8-diazabicyclo[3.2.1]octan-3-yl)-5-fluoro-3-(((2R,7aS)-2-fluorotetrahydro-1H-pyrrolizin-7a(5H)-yl)methoxy)-8-methylfuro[3,2-n]quinazolin-6-yl)benzo[d]thiazol-2-amine] | 2.95 | 1.61 |
| Cc1cc2c(o1)c(-c1ccc(F)c3sc(N)nc13)c(F)c1nc(OC[C@@]34CCCN3C[C@H](F)C4)nc(N3C[C@H]4CC[C@@H](C3)N4)c12 [Example 55, 4-(1-((1R,5S)-3,8-diazabicyclo[3.2.1]octan-3-yl)-5-fluoro-3-(((2R,7aS)-2-fluorotetrahydro-1H-pyrrolizin-7a(5H)-yl)methoxy)-8-methylfuro[3,2-n]quinazolin-6-yl)-7-fluorobenzo[d]thiazol-2-amine] | 3.24 | 1.91 |
| C#Cc1c(F)ccc2cc(N)cc(-c3c(F)c4nc(OCC5(CN6CCC7(CC6)CC7(F)F)CC5)nc(N5C[C@H]6CC[C@@H](C5)N6)c4c4cc(C)oc34)c12 [Example 58, 4-(1-((1R,5S)-3,8-diazabicyclo[3.2.1]octan-3-yl)-3-((1-((1,1-difluoro-6-azaspiro[2.5]octan-6-yl)methyl)cyclopropyl)methoxy)-5-fluoro-8-methylfuro[3,2-f]quinazolin-6-yl)-5-ethynyl-6-fluoronaphthalen-2-amine] | 6.81 | 1.92 |
| Cc1cc2c(o1)c(-c1nc(N)cc(C)c1C(F)(F)F)c(F)c1nc(OC[C@@]34CCCN3C[C@H](F)C4)nc(N3C[C@H]4CC[C@@H](C3)N4)c12 [Example 60, 6-(1-((1R,5S)-3,8-diazabicyclo[3.2.1]octan-3-yl)-5-fluoro-3-(((2R,7aS)-2-fluorotetrahydro-1H-pyrrolizin-7a(5H)-yl)methoxy)-8-methylfuro[3,2-n]quinazolin-6-yl)-4-methyl-5-(trifluoromethyl)pyridin-2-amine] | 0.87 | 1.61 |
| C#Cc1c(F)ccc2cc(O)cc(-c3c(F)c4nc(OC[C@@]56CCCN5CC(=C(F)F)C6)nc(N5CC6CCC(C5)N6)c4c4cc(C)oc34)c12 [Example 66, 4-(1-((1R,5S)-3,8-diazabicyclo[3.2.1]octan-3-yl)-3-(((S)-2-(difluoromethylene)tetrahydro-1H-pyrrolizin-7a(5H)-yl)methoxy)-5-fluoro-8-methylfuro[3,2-n]quinazolin-6-yl)-5-ethynyl-6-fluoronaphthalen-2-ol] | 14.49 | 9.45 |
| C#Cc1c(F)ccc2cc(O)cc(-c3c(F)c4nc(N5CC(N(C)C)C5)nc(N5C[C@H]6CC[C@@H](C5)N6)c4c4cn(C)nc34)c12 [Example 72, 4-(9-((1R,5S)-3,8-diazabicyclo[3.2.1]octan-3-yl)-7-(3-(dimethylamino)azetidin-1-yl)-5-fluoro-2-methyl-2H-pyrazolo[4,3-n]quinazolin-4-yl)-5-ethynyl-6-fluoronaphthalen-2-ol] | −0.29 | 0.00 |
| C#Cc1c(F)ccc2cc(N)cc(-c3cc4nc(OCC5(CN6CCC7(CC6)CC7(F)F)CC5)nc(N5C[C@H]6CC[C@@H](C5)N6)c4c4cn(C)nc34)c12 [Example 76, 4-(9-((1 R,5S)-3,8-diazabicyclo[3.2.1]octan-3-yl)-7-((1-((1,1-difluoro-6-azaspiro[2.5]octan-6-yl)methyl)cyclopropyl)methoxy)-2-methyl-2H-pyrazolo[4,3-f]quinazolin-4-yl)-5-ethynyl-6-fluoronaphthalen-2-amine] | 5.17 | 1.47 |
| C#Cc1c(F)ccc2cccc(-c3cc4nc(OC[C@@]56CCCN5C/C(=C\F)C6)nc(N5C[C@H]6CC[C@@H](C5)N6)c4c4cn(C)nc34)c12 [Example 78, 9-((1 R,5S)-3,8-diazabicyclo[3.2.1]octan-3-yl)-4-(8-ethynyl-7-fluoronaphthalen-1-yl)-7-(((S,Z)-2-(fluoromethylene)tetrahydro-1H-pyrrolizin-7a(5H)-yl)methoxy)-2-methyl-2H-pyrazolo[4,3-n]quinazoline] | 5.46 | 1.17 |
